Measurements: patent US20230017045A1, “PYRIDINE AND PYRIMIDINE CARBOXYLATE HERBICIDES AND METHODS OF USE THEREOF” (Dow AgroSciences LLC, priority 2017, published 2023)

tested on: test plant species; assay: Post-emergent herbicidal activity test (greenhouse, foliar spray, visual growth reduction); format: in vivo; conditions: post-emergence, 336 h, ALOMY: blackgrass (Alopecurus myosuroides), 140 g ai/ha, 14 days after application, read-out: Visual Growth Reduction (%) 14 Days After Application, ALOMY
Description: Post-emergent Test: Seeds or nutlets of the desired test plant species were planted in Sun Gro Metro-Mix® 360 planting mixture, which typically has a pH of 6.0 to 6.8 and an organic matter content of about 30 percent, in plastic pots with a surface area of 64 square centimeters. In some aspects, to ensure good germination and healthy plants, a fungicide treatment and/or other chemical or physical treatment was applied. The plants were grown for 7-21 d in a greenhouse with an approximate 15 h photoperiod which was maintained at 23-29° C. during the day and 22-28° C. during the night. Nutrients and water were added on a regular basis and supplemental lighting was provided with overhead metal halide 1000-Watt lamps as necessary. Plants were used for testing when they reached the first or second true leaf stage. A weighed amount, determined by the highest rate to be tested, of each test compound was placed in a 25 mL glass vial and was dissolved in 4 mL of a 97:3 v/v mixture of acetone and DMSO to obtain concentrated stock solutions. […] The concentrated stock solutions obtained were diluted with 20 mL of an aqueous mixture containing acetone, water, isopropyl alcohol, DMSO, […] crop oil concentrate, and X-77 surfactant in a 48.5:39:10:1.5:1.0:0.02 v/v ratio to obtain spray solutions containing the application rate. Compound requirements are based upon a 12 mL application volume at a rate of 187 liters per hectare (L/ha). Formulated compounds were applied to the plant material with an overhead Mandel track sprayer equipped with […] nozzles calibrated to deliver 187 L/ha over an application area of 0.64 square meters at a spray height of 18 inches (43 cm) above the average plant canopy height. Control plants were sprayed in the same manner with the solvent blank. The treated plants and control plants were placed in a greenhouse as described above and watered by subirrigation to prevent wash-off of the test compounds. After 14 d, the condition of the test plants as compared with that of the nontreated and control plants was determined visually and scored on a scale of 0 to 100 percent where 0 corresponds to no injury and 100 corresponds to complete control. In the reporting of the results, Table A: Percent Growth Reduction Conversion Table was used.

Structure (SMILES) | pest or weed control at 140 g/ha
COC(=O)c1nc(-c2c(Cl)cc(C(F)(F)F)cc2[S+](C)[O-])ccc1Cl (stereo not drawn) [F120, methyl 3-chloro-6-(2-chloro-6-(methylsulfinyl)-4-(trifluoromethyl)phenyl)picolinate] | 0 to 29%
COC(=O)c1nc(-c2ccc(C(F)(F)C#N)cc2Cl)ccc1Cl [F178, Methyl 3-chloro-6-(2-chloro-4-(cyanodifluoromethyl)phenyl)picolinate] | 0 to 29%

same assay, conditions: post-emergence, 336 h, AMARE: redroot pigweed (Amaranthus retroflexus), 140 g ai/ha, 14 days after application, read-out: Visual Growth Reduction (%) 14 Days After Application, AMARE

Structure (SMILES) | pest or weed control at 140 g/ha
COC(=O)c1nc(-c2c(Cl)cc(C(F)(F)F)cc2[S+](C)[O-])ccc1Cl (stereo not drawn) [F120, methyl 3-chloro-6-(2-chloro-6-(methylsulfinyl)-4-(trifluoromethyl)phenyl)picolinate] | 45 to 59%
COC(=O)c1nc(-c2ccc(C(F)(F)C#N)cc2Cl)ccc1Cl [F178, Methyl 3-chloro-6-(2-chloro-4-(cyanodifluoromethyl)phenyl)picolinate] | 0 to 29%

same assay, conditions: post-emergence, 336 h, AVEFA: wild oat (Avena fatua), 140 g ai/ha, 14 days after application, read-out: Visual Growth Reduction (%) 14 Days After Application, AVEFA

Structure (SMILES) | pest or weed control at 140 g/ha
COC(=O)c1nc(-c2c(Cl)cc(C(F)(F)F)cc2[S+](C)[O-])ccc1Cl (stereo not drawn) [F120, methyl 3-chloro-6-(2-chloro-6-(methylsulfinyl)-4-(trifluoromethyl)phenyl)picolinate] | 0 to 29%
COC(=O)c1nc(-c2ccc(C(F)(F)C#N)cc2Cl)ccc1Cl [F178, Methyl 3-chloro-6-(2-chloro-4-(cyanodifluoromethyl)phenyl)picolinate] | 0 to 29%

same assay, conditions: post-emergence, 336 h, CHEAL: lambsquarters (Chenopodium album), 140 g ai/ha, 14 days after application, read-out: Visual Growth Reduction (%) 14 Days After Application, CHEAL

Structure (SMILES) | pest or weed control at 140 g/ha
COC(=O)c1nc(-c2c(Cl)cc(C(F)(F)F)cc2[S+](C)[O-])ccc1Cl (stereo not drawn) [F120, methyl 3-chloro-6-(2-chloro-6-(methylsulfinyl)-4-(trifluoromethyl)phenyl)picolinate] | 30 to 44%
COC(=O)c1nc(-c2ccc(C(F)(F)C#N)cc2Cl)ccc1Cl [F178, Methyl 3-chloro-6-(2-chloro-4-(cyanodifluoromethyl)phenyl)picolinate] | 0 to 29%

same assay, conditions: post-emergence, 336 h, CIRAR: canada thistle (Cirsium arvense), 140 g ai/ha, 14 days after application, read-out: Visual Growth Reduction (%) 14 Days After Application, CIRAR

Structure (SMILES) | pest or weed control at 140 g/ha
COC(=O)c1nc(-c2c(Cl)cc(C(F)(F)F)cc2[S+](C)[O-])ccc1Cl (stereo not drawn) [F120, methyl 3-chloro-6-(2-chloro-6-(methylsulfinyl)-4-(trifluoromethyl)phenyl)picolinate] | 60 to 74%
COC(=O)c1nc(-c2ccc(C(F)(F)C#N)cc2Cl)ccc1Cl [F178, Methyl 3-chloro-6-(2-chloro-4-(cyanodifluoromethyl)phenyl)picolinate] | 0 to 29%

same assay, conditions: post-emergence, 336 h, CYPES: yellow nutsedge (Cyperus esculentus), 140 g ai/ha, 14 days after application, read-out: Visual Growth Reduction (%) 14 Days After Application, CYPES

Structure (SMILES) | pest or weed control at 140 g/ha
COC(=O)c1nc(-c2c(Cl)cc(C(F)(F)F)cc2[S+](C)[O-])ccc1Cl (stereo not drawn) [F120, methyl 3-chloro-6-(2-chloro-6-(methylsulfinyl)-4-(trifluoromethyl)phenyl)picolinate] | 0 to 29%
COC(=O)c1nc(-c2ccc(C(F)(F)C#N)cc2Cl)ccc1Cl [F178, Methyl 3-chloro-6-(2-chloro-4-(cyanodifluoromethyl)phenyl)picolinate] | 0 to 29%

same assay, conditions: post-emergence, 336 h, DIGSA: crabgrass (Digitaria sanguinalis), 140 g ai/ha, 14 days after application, read-out: Visual Growth Reduction (%) 14 Days After Application, DIGSA

Structure (SMILES) | pest or weed control at 140 g/ha
COC(=O)c1nc(-c2c(Cl)cc(C(F)(F)F)cc2[S+](C)[O-])ccc1Cl (stereo not drawn) [F120, methyl 3-chloro-6-(2-chloro-6-(methylsulfinyl)-4-(trifluoromethyl)phenyl)picolinate] | 0 to 29%
COC(=O)c1nc(-c2ccc(C(F)(F)C#N)cc2Cl)ccc1Cl [F178, Methyl 3-chloro-6-(2-chloro-4-(cyanodifluoromethyl)phenyl)picolinate] | 0 to 29%

same assay, conditions: post-emergence, 336 h, ECHCG: barnyardgrass (Echinochloa crus-galli), 140 g ai/ha, 14 days after application, read-out: Visual Growth Reduction (%) 14 Days After Application, ECHCG

Structure (SMILES) | pest or weed control at 140 g/ha
COC(=O)c1nc(-c2c(Cl)cc(C(F)(F)F)cc2[S+](C)[O-])ccc1Cl (stereo not drawn) [F120, methyl 3-chloro-6-(2-chloro-6-(methylsulfinyl)-4-(trifluoromethyl)phenyl)picolinate] | 0 to 29%
COC(=O)c1nc(-c2ccc(C(F)(F)C#N)cc2Cl)ccc1Cl [F178, Methyl 3-chloro-6-(2-chloro-4-(cyanodifluoromethyl)phenyl)picolinate] | 0 to 29%

same assay, conditions: post-emergence, 336 h, IPOHE: ivy-leaf morning glory (Ipomoea hederacea), 140 g ai/ha, 14 days after application, read-out: Visual Growth Reduction (%) 14 Days After Application, IPOHE

Structure (SMILES) | pest or weed control at 140 g/ha
COC(=O)c1nc(-c2c(Cl)cc(C(F)(F)F)cc2[S+](C)[O-])ccc1Cl (stereo not drawn) [F120, methyl 3-chloro-6-(2-chloro-6-(methylsulfinyl)-4-(trifluoromethyl)phenyl)picolinate] | 30 to 44%
COC(=O)c1nc(-c2ccc(C(F)(F)C#N)cc2Cl)ccc1Cl [F178, Methyl 3-chloro-6-(2-chloro-4-(cyanodifluoromethyl)phenyl)picolinate] | 0 to 29%

same assay, conditions: post-emergence, 336 h, KCHSC: kochia (Bassia scoparia), 140 g ai/ha, 14 days after application, read-out: Visual Growth Reduction (%) 14 Days After Application, KCHSC

Structure (SMILES) | pest or weed control at 140 g/ha
COC(=O)c1nc(-c2c(Cl)cc(C(F)(F)F)cc2[S+](C)[O-])ccc1Cl (stereo not drawn) [F120, methyl 3-chloro-6-(2-chloro-6-(methylsulfinyl)-4-(trifluoromethyl)phenyl)picolinate] | 60 to 74%
COC(=O)c1nc(-c2ccc(C(F)(F)C#N)cc2Cl)ccc1Cl [F178, Methyl 3-chloro-6-(2-chloro-4-(cyanodifluoromethyl)phenyl)picolinate] | 0 to 29%

same assay, conditions: post-emergence, 336 h, ORYSA: rice (Oryza sativa), 140 g ai/ha, 14 days after application, read-out: Visual Growth Reduction (%) 14 Days After Application, ORYSA

Structure (SMILES) | pest or weed control at 140 g/ha
COC(=O)c1nc(-c2c(Cl)cc(C(F)(F)F)cc2[S+](C)[O-])ccc1Cl (stereo not drawn) [F120, methyl 3-chloro-6-(2-chloro-6-(methylsulfinyl)-4-(trifluoromethyl)phenyl)picolinate] | 0 to 29%
COC(=O)c1nc(-c2ccc(C(F)(F)C#N)cc2Cl)ccc1Cl [F178, Methyl 3-chloro-6-(2-chloro-4-(cyanodifluoromethyl)phenyl)picolinate] | 0 to 29%

same assay, conditions: post-emergence, 336 h, SETFA: giant foxtail (Setaria faberi), 140 g ai/ha, 14 days after application, read-out: Visual Growth Reduction (%) 14 Days After Application, SETFA

Structure (SMILES) | pest or weed control at 140 g/ha
COC(=O)c1nc(-c2c(Cl)cc(C(F)(F)F)cc2[S+](C)[O-])ccc1Cl (stereo not drawn) [F120, methyl 3-chloro-6-(2-chloro-6-(methylsulfinyl)-4-(trifluoromethyl)phenyl)picolinate] | 0 to 29%
COC(=O)c1nc(-c2ccc(C(F)(F)C#N)cc2Cl)ccc1Cl [F178, Methyl 3-chloro-6-(2-chloro-4-(cyanodifluoromethyl)phenyl)picolinate] | 0 to 29%

same assay, conditions: post-emergence, 336 h, SORVU: grain sorghum (Sorghum vulgare), 140 g ai/ha, 14 days after application, read-out: Visual Growth Reduction (%) 14 Days After Application, SORVU

Structure (SMILES) | pest or weed control at 140 g/ha
COC(=O)c1nc(-c2c(Cl)cc(C(F)(F)F)cc2[S+](C)[O-])ccc1Cl (stereo not drawn) [F120, methyl 3-chloro-6-(2-chloro-6-(methylsulfinyl)-4-(trifluoromethyl)phenyl)picolinate] | 0 to 29%
COC(=O)c1nc(-c2ccc(C(F)(F)C#N)cc2Cl)ccc1Cl [F178, Methyl 3-chloro-6-(2-chloro-4-(cyanodifluoromethyl)phenyl)picolinate] | 0 to 29%

same assay, conditions: post-emergence, 336 h, STEME: common chickweed (Stellaria media), 140 g ai/ha, 14 days after application, read-out: Visual Growth Reduction (%) 14 Days After Application, STEME

Structure (SMILES) | pest or weed control at 140 g/ha
COC(=O)c1nc(-c2c(Cl)cc(C(F)(F)F)cc2[S+](C)[O-])ccc1Cl (stereo not drawn) [F120, methyl 3-chloro-6-(2-chloro-6-(methylsulfinyl)-4-(trifluoromethyl)phenyl)picolinate] | 0 to 29%
COC(=O)c1nc(-c2ccc(C(F)(F)C#N)cc2Cl)ccc1Cl [F178, Methyl 3-chloro-6-(2-chloro-4-(cyanodifluoromethyl)phenyl)picolinate] | 0 to 29%

same assay, conditions: post-emergence, 336 h, TRZAS: wheat, spring (Triticum aestivum), 140 g ai/ha, 14 days after application, read-out: Visual Growth Reduction (%) 14 Days After Application, TRZAS

Structure (SMILES) | pest or weed control at 140 g/ha
COC(=O)c1nc(-c2c(Cl)cc(C(F)(F)F)cc2[S+](C)[O-])ccc1Cl (stereo not drawn) [F120, methyl 3-chloro-6-(2-chloro-6-(methylsulfinyl)-4-(trifluoromethyl)phenyl)picolinate] | 0 to 29%
COC(=O)c1nc(-c2ccc(C(F)(F)C#N)cc2Cl)ccc1Cl [F178, Methyl 3-chloro-6-(2-chloro-4-(cyanodifluoromethyl)phenyl)picolinate] | 0 to 29%
